In ChEMBL document CHEMBL1201862, “PubChem BioAssay data set” (2004):
Several values for one entry are separate records, joined by “and”; a condition that tells them apart may be missing. Identical values can stand only once. Blank lines part the entries; values can stand above or below the compound they belong to. Activity calls are given as the source filed them.

Legend:
[1] = target: T1, High affinity choline transporter 1 (Homo sapiens, UniProt Q9GZV3); experiment: CHT inhibitors, dose response, cell-based, 5-point CRC, membrane potential dye (AID 504840); type: functional
T1 sequence (Q9GZV3 whole entry): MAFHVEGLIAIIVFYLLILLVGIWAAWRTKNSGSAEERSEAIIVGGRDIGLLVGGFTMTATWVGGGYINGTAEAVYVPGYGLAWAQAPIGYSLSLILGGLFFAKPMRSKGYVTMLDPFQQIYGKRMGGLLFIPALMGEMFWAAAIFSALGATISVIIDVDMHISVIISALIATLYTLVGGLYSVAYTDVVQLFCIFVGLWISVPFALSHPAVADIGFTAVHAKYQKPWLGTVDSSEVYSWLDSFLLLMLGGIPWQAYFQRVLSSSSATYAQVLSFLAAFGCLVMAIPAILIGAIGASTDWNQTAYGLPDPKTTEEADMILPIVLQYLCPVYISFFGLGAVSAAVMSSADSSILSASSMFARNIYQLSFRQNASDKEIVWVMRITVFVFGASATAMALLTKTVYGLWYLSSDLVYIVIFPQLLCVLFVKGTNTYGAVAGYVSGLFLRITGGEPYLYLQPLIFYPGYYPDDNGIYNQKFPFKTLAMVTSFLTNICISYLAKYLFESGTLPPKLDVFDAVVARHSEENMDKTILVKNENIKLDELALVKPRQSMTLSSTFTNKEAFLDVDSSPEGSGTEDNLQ

[2] = target: T1, High affinity choline transporter 1; experiment: CHT inhibitors, dose response, cell-based, 10-point CRC, membrane potential dye (AID 588401); type: functional;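 note: membrane potential dye fluorescence of choline-evoked depolarization via CHT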
[3] = HEp-2 cell cytotoxicity, dose response, cytotoxicity control for RSV inhibitor project, HTS (AID 2410); type: functional; conditions: human respiratory syncytial virus
Cytochrome P450 2D6 = Cytochrome P450 2D6 (Homo sapiens, UniProt P10635);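 note: CYP2D6 member of a cytochrome P450 panel assay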
Sequence of Cytochrome P450 2D6 (P10635 whole entry): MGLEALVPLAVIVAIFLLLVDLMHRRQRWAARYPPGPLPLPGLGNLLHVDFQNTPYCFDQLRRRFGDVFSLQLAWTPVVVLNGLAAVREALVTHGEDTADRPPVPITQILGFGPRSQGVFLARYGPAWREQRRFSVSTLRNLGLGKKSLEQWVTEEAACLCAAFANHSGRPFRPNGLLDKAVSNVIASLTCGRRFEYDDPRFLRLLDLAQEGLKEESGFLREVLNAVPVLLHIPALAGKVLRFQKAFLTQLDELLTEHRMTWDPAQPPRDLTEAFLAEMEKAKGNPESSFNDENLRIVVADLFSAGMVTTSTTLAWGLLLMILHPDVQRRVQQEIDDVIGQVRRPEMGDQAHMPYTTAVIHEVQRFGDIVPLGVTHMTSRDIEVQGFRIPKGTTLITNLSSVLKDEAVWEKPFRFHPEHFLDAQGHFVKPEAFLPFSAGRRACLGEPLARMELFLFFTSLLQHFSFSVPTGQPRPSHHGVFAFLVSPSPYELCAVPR

Melanocortin receptor 4 = Melanocortin receptor 4 (Homo sapiens, UniProt P32245); experiment: MC4R antagonist potency on cAMP, dose response, cell-based, TR-FRET, biased antagonists (AID 602298); type: functional;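 note: antagonist potency against agonist-stimulated cAMP production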
Sequence of Melanocortin receptor 4 (P32245 whole entry): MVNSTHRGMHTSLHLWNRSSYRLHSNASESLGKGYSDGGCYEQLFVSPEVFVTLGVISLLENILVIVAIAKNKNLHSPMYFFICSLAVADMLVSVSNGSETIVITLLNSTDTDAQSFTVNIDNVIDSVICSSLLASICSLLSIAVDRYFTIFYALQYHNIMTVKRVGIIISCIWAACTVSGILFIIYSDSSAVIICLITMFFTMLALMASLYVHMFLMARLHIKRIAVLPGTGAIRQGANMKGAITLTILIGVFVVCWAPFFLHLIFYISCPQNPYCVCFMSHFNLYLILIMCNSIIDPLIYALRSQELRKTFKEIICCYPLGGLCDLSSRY

[4] = nonselective inhibitors of cellular cAMP signaling, dose response, counter-screen for MC4R biased antagonist project, cell-based, TR-FRET cAMP detection (AID 602305); type: functional;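 note: U2OS cells stimulated with forskolin near its EC80 as the cAMP inducer; potency is for inhibition of forskolin-stimulated cAMP signaling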
[5] = target: T2, Sentrin-specific protease 6 (Homo sapiens, UniProt Q9GZR1); experiment: SAR Analysis of small molecule inhibitors of Sentrin-specific protease 6 (SENP6) using a Luminescent assay. [Related pubchem assays (depositor defined):AID2582, AID2599]; type: functional
T2 sequence (Q9GZR1 whole entry): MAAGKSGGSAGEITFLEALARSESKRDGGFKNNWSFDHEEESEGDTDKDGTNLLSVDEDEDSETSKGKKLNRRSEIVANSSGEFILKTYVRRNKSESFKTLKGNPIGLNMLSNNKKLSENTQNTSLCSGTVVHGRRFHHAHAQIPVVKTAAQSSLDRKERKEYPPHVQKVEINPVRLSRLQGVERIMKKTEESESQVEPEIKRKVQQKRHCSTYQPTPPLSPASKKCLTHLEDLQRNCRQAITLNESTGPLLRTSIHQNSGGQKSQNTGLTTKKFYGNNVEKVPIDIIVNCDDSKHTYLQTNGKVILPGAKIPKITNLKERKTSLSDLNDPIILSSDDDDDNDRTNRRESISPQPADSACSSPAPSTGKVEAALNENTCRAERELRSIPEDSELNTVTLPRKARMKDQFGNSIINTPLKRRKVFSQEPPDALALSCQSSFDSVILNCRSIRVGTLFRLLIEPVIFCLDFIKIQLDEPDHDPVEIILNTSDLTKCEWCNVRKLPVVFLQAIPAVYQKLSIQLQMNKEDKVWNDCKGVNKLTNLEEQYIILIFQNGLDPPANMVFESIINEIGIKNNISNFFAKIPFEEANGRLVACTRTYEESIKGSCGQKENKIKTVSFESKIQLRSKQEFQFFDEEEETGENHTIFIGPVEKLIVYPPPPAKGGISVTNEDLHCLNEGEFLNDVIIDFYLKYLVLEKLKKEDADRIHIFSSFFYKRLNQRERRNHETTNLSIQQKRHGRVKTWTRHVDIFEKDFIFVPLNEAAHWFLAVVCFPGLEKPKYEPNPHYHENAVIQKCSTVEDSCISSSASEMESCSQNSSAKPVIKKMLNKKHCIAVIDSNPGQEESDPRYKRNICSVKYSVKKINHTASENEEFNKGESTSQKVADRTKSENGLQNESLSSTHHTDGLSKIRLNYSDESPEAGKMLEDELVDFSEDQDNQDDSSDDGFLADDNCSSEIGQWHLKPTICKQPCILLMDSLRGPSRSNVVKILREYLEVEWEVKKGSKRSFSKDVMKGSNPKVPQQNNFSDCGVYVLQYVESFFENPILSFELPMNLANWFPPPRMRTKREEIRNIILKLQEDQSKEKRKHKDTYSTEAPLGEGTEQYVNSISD

[6] = target: T3, Sentrin-specific protease 7 (Homo sapiens, UniProt Q9BQF6); experiment: SENP7 protease inhibitors, SAR follow-up, biochemical, luminescence (AID 504497); type: functional
T3 sequence (Q9BQF6 whole entry): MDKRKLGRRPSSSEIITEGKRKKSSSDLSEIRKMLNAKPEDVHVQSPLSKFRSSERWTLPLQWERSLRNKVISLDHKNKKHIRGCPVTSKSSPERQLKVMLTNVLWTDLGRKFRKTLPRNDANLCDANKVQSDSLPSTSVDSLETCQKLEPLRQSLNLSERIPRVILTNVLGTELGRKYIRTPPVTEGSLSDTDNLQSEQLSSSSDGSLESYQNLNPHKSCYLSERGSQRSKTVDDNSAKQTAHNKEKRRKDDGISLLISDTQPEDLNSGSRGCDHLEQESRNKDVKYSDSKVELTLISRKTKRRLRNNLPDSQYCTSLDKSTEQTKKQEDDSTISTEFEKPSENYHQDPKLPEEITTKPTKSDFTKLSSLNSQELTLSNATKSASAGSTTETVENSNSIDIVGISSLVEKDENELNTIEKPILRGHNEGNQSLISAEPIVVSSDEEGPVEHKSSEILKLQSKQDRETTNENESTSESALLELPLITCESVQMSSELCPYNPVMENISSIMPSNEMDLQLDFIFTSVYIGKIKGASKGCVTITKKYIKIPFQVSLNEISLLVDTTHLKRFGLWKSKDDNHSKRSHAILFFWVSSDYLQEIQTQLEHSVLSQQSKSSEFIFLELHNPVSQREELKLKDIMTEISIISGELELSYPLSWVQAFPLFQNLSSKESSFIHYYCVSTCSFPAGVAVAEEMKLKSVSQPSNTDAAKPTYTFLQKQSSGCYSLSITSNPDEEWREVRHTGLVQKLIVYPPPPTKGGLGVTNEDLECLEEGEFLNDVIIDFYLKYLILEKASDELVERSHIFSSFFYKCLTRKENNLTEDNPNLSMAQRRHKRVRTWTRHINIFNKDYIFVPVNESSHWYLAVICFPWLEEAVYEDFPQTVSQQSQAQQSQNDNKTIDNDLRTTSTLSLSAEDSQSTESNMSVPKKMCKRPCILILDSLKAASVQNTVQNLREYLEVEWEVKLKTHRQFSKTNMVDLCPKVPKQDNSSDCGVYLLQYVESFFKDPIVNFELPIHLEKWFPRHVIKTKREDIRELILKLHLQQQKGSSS

[7] = target: T4, Sentrin-specific protease 8 (Homo sapiens, UniProt Q96LD8); experiment: SENP8 protease inhibitors, SAR follow-up, biochemical, luminescence (AID 504501); type: functional
T4 sequence (Q96LD8 whole entry): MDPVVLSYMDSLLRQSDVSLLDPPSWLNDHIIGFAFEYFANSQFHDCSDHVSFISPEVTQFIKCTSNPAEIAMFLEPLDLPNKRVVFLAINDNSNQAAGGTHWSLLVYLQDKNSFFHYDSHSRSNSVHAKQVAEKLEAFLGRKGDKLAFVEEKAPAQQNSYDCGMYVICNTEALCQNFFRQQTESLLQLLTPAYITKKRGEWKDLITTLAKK

Caspase-3 = target: T5, Caspase-3 (Homo sapiens, UniProt P42574); experiment: SAR Analysis of small molecule inhibitors of Sentrin-specific proteases (SENPs) using a Caspase-3 Selectivity assay. [Related pubchem assays (depositor defined):AID2540, AID2599, AID434973, AID489001]; type: functional
T5 sequence (P42574 whole entry): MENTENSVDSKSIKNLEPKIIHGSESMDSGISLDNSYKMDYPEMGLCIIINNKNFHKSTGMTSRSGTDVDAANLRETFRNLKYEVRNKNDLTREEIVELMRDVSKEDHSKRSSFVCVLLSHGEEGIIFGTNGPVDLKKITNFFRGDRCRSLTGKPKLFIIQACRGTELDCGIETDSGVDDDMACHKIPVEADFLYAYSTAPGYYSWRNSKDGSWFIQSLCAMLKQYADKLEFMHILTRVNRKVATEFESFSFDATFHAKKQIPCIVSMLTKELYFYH

[8] = target: Melanin-concentrating hormone receptor 1 (Homo sapiens, UniProt Q99705); experiment: Late-stage fluorescence-based counterscreen for antagonists of the G-protein coupled receptor 7 (GPR7): cell-based dose response assay to identify antagonists of the melanin-concentrating hormone receptor 1 (MCHR1) Set 6.; type: functional
Sequence of Melanin-concentrating hormone receptor 1 (Q99705 whole entry): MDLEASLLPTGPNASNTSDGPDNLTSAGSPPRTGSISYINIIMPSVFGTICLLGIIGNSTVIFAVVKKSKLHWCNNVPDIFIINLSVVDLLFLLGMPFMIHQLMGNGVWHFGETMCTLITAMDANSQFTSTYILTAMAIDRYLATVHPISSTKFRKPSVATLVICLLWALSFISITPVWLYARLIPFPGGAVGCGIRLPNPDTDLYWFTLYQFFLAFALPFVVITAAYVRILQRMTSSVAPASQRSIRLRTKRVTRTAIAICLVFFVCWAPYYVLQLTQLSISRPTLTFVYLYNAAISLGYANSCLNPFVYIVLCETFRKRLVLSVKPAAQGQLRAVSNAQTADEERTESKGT

[9] = target: T6, Neuropeptides B/W receptor type 1 (Homo sapiens, UniProt P48145); experiment: GPR7 antagonist potency, late-stage follow-up, cell-based, fluorescence, dose response, set 6 (AID 588583); type: functional
T6 sequence (P48145 whole entry): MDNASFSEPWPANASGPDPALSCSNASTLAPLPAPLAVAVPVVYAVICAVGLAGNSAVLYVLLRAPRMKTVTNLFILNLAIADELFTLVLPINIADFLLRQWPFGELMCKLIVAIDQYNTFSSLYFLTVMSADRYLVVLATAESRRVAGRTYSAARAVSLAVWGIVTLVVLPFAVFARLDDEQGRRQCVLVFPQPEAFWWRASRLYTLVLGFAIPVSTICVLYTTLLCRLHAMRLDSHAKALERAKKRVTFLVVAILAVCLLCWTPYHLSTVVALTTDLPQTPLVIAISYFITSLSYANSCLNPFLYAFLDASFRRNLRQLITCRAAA

[10] = target: T7, Rac GTPase-activating protein 1 (Homo sapiens, UniProt Q9H0H5); experiment: MgcRacGAP GTPase-activating activity inhibitors, confirmation, biochemical, ADP Hunter fluorescence, primary and confirmatory (AID 624330); type: functional
T7 sequence (Q9H0H5 whole entry): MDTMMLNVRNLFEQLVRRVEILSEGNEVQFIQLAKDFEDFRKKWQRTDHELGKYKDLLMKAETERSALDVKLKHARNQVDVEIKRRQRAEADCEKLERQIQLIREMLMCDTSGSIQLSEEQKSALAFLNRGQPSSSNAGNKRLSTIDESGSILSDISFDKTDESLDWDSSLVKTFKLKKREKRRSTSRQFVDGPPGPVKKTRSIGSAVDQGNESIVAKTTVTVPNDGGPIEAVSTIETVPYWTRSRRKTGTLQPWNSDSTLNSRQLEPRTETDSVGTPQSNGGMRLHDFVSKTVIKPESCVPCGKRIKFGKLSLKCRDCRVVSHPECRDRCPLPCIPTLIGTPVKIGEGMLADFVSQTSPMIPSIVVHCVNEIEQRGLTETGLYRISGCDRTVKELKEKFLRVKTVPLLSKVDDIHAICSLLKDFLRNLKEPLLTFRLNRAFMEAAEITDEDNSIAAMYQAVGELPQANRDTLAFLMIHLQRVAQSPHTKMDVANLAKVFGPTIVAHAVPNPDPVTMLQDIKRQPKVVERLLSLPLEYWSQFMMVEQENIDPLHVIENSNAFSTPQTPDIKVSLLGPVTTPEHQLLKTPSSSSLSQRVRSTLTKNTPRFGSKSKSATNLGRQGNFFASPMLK

H9c2 = experiment: cells; type: functional, cell-based; conditions: Rattus norvegicus, H9c2, Myocardium;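 note: confirmatory concentration-response retest of ultra-high-throughput screening hits for modulation of myocardial damage; cell death induced by hydrogen peroxide oxidative stress; compound pretreatment for 60 min then peroxide exposure for 2 h; potency is for protecting the cells against peroxide damage rather than for killing them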
[11] = target: T3, Sentrin-specific protease 7; experiment: SENP7 protease inhibitors, SAR follow-up, biochemical, luminescence, set 2 (AID 588600); type: functional
[12] = target: T4, Sentrin-specific protease 8; experiment: SENP8 protease inhibitors, SAR follow-up, biochemical, luminescence, set 2 (AID 588601); type: functional
[13] = target: T2, Sentrin-specific protease 6; experiment: SENP6 protease inhibitors, SAR follow-up, biochemical, luminescence, set 2 (AID 588598); type: functional

IC50 [1]: 6.41 µM (active) | IC50 [2]: 6.21 µM (active)
SMILES: NC(=O)CC(NC(=O)c1ccccc1)c1ccc(N2CCCCCCC2)c([N+](=O)[O-])c1 (configuration not stated)

SMILES: COc1ccc(OC)c(C2C3=C(O)CCCC3=NC(C)=C2C(=O)Nc2nc3ccccc3s2)c1 (configuration not stated)
CC50 [3]: 23.1 µM (active) | AC50 (Cytochrome P450 2D6): 22.4 µM (inconclusive) | IC50 (cells): 9.83 µM (active) | IC50 (Melanocortin receptor 4): 12.6 µM (inactive) | IC50 [4]: > 64.6 µM (inactive)

IC50 [5]: > 99 µM (inactive) | IC50 [6]: > 99 µM (inactive) | IC50 (Caspase-3): > 99 µM (inactive)
SMILES: O=C(Nc1ccc(-c2noc(/C=C/c3ccccc3)n2)cc1)c1ccc(Br)o1
IC50 [7]: > 99 µM (inactive)

IC50 [8]: 553 nM (active) | IC50 [9]: 553 nM (active)
SMILES: N#Cc1cccc(C(C#N)c2c(Cl)cnn(Cc3cccc4ccccc34)c2=O)c1 (configuration not stated)

SMILES: CCOC(=O)c1sc(S)nc1C
IC50 [10]: 50 µM (active) | IC50 (Melanocortin receptor 4): 18.2 µM (inactive) | IC50 [4]: 44.7 µM (inactive)

SMILES: CCN(C[C@H]1N[C@@](CC)(C(=O)OC)[C@H]2C(=O)N(Cc3ccccc3)C(=O)[C@@H]12)C(=O)c1ccc(C(C)(C)C)cc1
IC50 (H9c2): > 79 µM (inactive) | IC50 (Melanocortin receptor 4): > 64.6 µM (inactive) | IC50 [4]: > 64.6 µM (inactive)

IC50 [5]: 0.97 µM (active) | IC50 [6]: 0.96 µM (active) | IC50 [11]: 1.16 µM (active) | IC50 (Caspase-3): 1.1 µM (active) | IC50 [13]: 1.15 µM (active)
SMILES: CCCCc1ccc2nc(NC(=O)c3sccc3Cl)sc2c1
IC50 [7]: 0.99 µM (active) | IC50 [12]: 1.06 µM (active)

IC50 [8]: 253 nM (active) and 1.62 µM (active) | IC50 [9]: 253 nM (active) and 1.62 µM (active)
SMILES: CC(C)c1ccc(C(C#N)c2c(Cl)cnn(Cc3cccc4ccccc34)c2=O)cc1 (configuration not stated)

IC50 [8]: > 20000 nM (inactive) | IC50 [9]: > 20000 nM (inactive)
SMILES: CCn1ccc2ccc(Oc3c(Cl)cnn(Cc4cccc5ccccc45)c3=O)cc21

IC50 [1]: 7.86 µM (active) | IC50 [2]: 11.2 µM (active)
SMILES: CCc1ccc(C(C)N=C(S)NC2CCCCC2)cc1 (configuration not stated)
